Here are results for five molecules from patent publication US20090131320A1, “PEPTIDES MODULATING THE ACTIVITY OF THE ENGRAILED TRANSCRIPTION FACTOR” (Centre National De La Recherche Scient., priority 2003, published 2009).

Experiment [1] deals with T1, chick Engrailed-2 protein (Gallus gallus, UniProt Q05917).
T1 construct: expressed in transfected cells; host or cells: CHP100 neuroepithelial cell line, electroporated with pCL9mEn2
T1 sequence (Q05917 1-289): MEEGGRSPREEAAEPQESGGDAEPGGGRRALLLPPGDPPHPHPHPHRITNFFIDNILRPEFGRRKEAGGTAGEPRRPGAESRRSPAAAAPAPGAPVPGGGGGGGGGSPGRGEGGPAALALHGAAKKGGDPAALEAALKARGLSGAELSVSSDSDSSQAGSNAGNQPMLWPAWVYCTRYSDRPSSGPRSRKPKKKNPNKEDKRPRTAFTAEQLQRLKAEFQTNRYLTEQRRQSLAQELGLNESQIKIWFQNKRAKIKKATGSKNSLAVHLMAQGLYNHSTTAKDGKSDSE
Nature of the experiment: Effect of peptides on activation of the MAP1B promoter by Engrailed-2 in CHP100 cells (luciferase). The format is cell-based. Conditions: for effect on the activation of MAP1B by Engrailed (in words): peptide + En2 cotransfected. As to the method:
(§1) The transcriptional activity of Engrailed is evaluated as described by Montesinos et al. (J. Neurosci., 21, 3350-9, 2001), by measuring the expression of the luciferase reporter gene placed in the plasmid pMAP-luc under the control of a promoter that is a target for Engrailed, the MAP1B (microtubule-associated protein 1B) promoter.
(§2) Cells of the neuroepithelial line CHP 100 (Schlesinger et al, Cancer Res. 36, […], 1976) are cultured in RPMI 1640 (Life Technologies, Gaithersburg, Md.) supplemented with 16 mM glucose, 15% fetal calf serum, 5 U/ml of penicillin and 5 μg/ml of streptomycin, and cotransfected by electroporation with pMAP-luc and one of the following vectors:
(§3) pCL9mEn2 (Mainguy et al., Natural Biotechnol. 18: 746-749, 2000) which contains the sequence encoding the whole chick Engrailed-2 protein, under the control of the CMV promoter;
(§4) The electroporation is carried out with a maximum of 10 μg of plasmid DNA (2 μg of reporter plasmid pMAP-luc+variable amounts of En2 expression vector) per 8×10^5 cells in 350 μl of medium, at 1050 μF and at […]. 400 μl of medium are then added and the combination is allowed to stand for 10 min. The cells are then placed in culture, after washing, in two dishes (3.5 cm diameter).
(§5) The luciferase activity is assayed 24 hours after transfection. The cells are rinsed with PBS. Lysis buffer (20 mM Tris/H3PO4, pH 7.8, 10 mM MgCl2, 15% glycerol, 1 mM EDTA, 1% Triton-X 100, 1.25 mM ATP, 10 μg/ml luciferin) is added to the cells. After incubation at 4° C. for 30 min, the luciferase activity is measured by luminometry (Berthold Lumat LB 9501 luminometer).
The CHP100 cells are cotransfected by electroporation, as defined above, with pMAP-luc (2 μg), pCL9mEn2 or pCL9 mHDEn2C (4 μg) and 4 μg of pCS2-pep1 or pCS2-pep2.

The test system of another experiment is MAP1B promoter. Nature of the experiment: MAP1B promoter luciferase reporter (pMAP-luc) in CHP 100 cells, protein or peptide alone. Conditions: luciferase 24 hours after transfection. The format is cell-based. The protocol:
as §1, §2, §3
pCL9mEn2ΔH1 (Joliot et al., Curr Biol. 8: 856-863, 1998), which contains the sequence encoding the chick Engrailed-2 protein from which amino acids 36 to 46 of the homeodomain (DNA-binding sequence) have been deleted, under the control of the CMV promoter;
(§6) pCL9 mHDEn2C, which contains the sequence encoding the chick Engrailed-2 protein from which amino acids 10 to 185 have been deleted, under the control of the CMV promoter.
as §4, §5
In general terms: In a reporter assay the amount or activity of a reporter protein is the signal.

The test system of experiment [2] is Engrailed. Nature of the experiment: In vivo effect on the transcriptional activity of Engrailed, pMAP-lacZ β-galactosidase reporter in the neural tube of chick embryos. Conditions: chick embryo neural tube HH8-HH10, electroporation, 24 h. As to the method:
The effect of pep1 or pep2 on the transcriptional activity of Engrailed was evaluated by measuring the expression of the β-galactosidase reporter gene placed in the plasmid pMAP-lacZ (described by Montesinos et al., 2001, mentioned above) under the control of the MAP1B promoter, in the neural tube of chick embryos at the HH8-HH10 stage.
The vectors pCS2-pep1 or pCS2-pep2, and also the vector pMAP-lacZ vector (each vector is used at a concentration of 1 μg/μl), were introduced by electroporation into the neural tube of chick embryos at the HH8-HH10 stage in accordance with the protocol of Muramatsu et al. (1997), with a BTX ECM 830 electroporator (4 pulses of 25 V and 50 msec) (Genetronics, San Diego, Calif.). The vectors were injected into the neural tube using a micropipette.

The target in experiment [3] is T2, HDEn2C (chick Engrailed-2 protein from which amino acids 10 to 185 have been deleted) (Gallus gallus, UniProt Q05917, DEL10-185).
T2 construct: expressed in transfected cells; host or cells: CHP100 neuroepithelial cell line, electroporated with pCL9 mHDEn2C
T2 sequence (Q05917 with tags, fused parts or gaps DEL10-185): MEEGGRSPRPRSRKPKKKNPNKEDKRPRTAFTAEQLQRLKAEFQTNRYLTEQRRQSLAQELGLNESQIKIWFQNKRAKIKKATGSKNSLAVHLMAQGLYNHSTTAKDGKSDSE
Nature of the experiment: Effect of peptides on activation of the MAP1B promoter by HDEn2C (Engrailed homeodomain) in CHP100 cells (luciferase). The format is cell-based. The settings on record: HDEn2C + peptide cotransfected. As to the method:
as §1, §2, §6
The electroporation is carried out with a maximum of 10 μg of plasmid DNA (2 μg of reporter plasmid pMAP-luc+variable amounts of En2 expression vector) per 8×10^5 cells in 350 μl of medium, at 1050 μF and at […]. 400 μl of medium are then added and the combination is allowed to stand for 10 min. […]
The luciferase activity is assayed 24 hours after transfection. […] After incubation at 4° C. for 30 min, the luciferase activity is measured by luminometry (Berthold Lumat LB 9501 luminometer). […]

Experiment [4] deals with Engrailed. Nature of the experiment: Effect of peptides on the activity of Engrailed in primary cultures of mesencephalic neurons (pMAP-luc). Conditions: primary mouse embryonic mesencephalic neurons; for effect on the activation of the MAP1B promoter in neurons: endogenous Engrailed. The format is cell-based. The protocol: In order to verify the functionality of peptides 1 and 2 in a physiological cellular context, the effect of these peptides was tested in primary cultures of mouse embryonic mesencephalic neurons.
Fragments of mouse mesencephalon (embryonic day 13.5) are incubated at 24° C. for 5 min in trypsin-EDTA, then washed in a phosphate buffer, pH 7.5, supplemented with 33 mM glucose (PBS) and 10% fetal calf serum, and subsequently incubated at 37° C. for 10 min in […] of DnaseI (Sigma, Saint Louis, Mo.). The cells are dissociated mechanically, washed three times with PBS, and placed in culture at a density of 200 000 cells/cm^2, in wells pre-saturated with D,L-poly-ornithine (1.5 μg/ml) and laminin (5 μg/ml). The culture medium (MMS) consists of DMEM/F12 (1/1, Life Technologies, Cergy, France), with 33 mM glucose, 2 mM glutamine, 10 mM HEPES, pH 7.4, 9 mM NaHCO^−3, 5 U/ml of penicillin and 5 μg/ml of streptomycin. Added to MSS are 0.1% of ovalbumin, 25 μg/ml of insulin, 100 μg/ml of transferrin, 20 nM of progesterone, 60 μM of putrescine and 30 nM selenium (M2OV).
The day after the cells were placed in culture, the medium, in each well, is replaced with 600 μl of MSS, without penicillin or streptomycin. 100 μl of the transfection mixture comprising pMAP-luc (0.5 μg) and 0.5 μg of pCS2-pep1 or pCS2-pep2, and 1 mg/ml of Lipofectamine 2000 (Invitrogen) in OPTI-MEM medium (qs 100 μl), mixed beforehand for 20 min at 24° C., are added to each well. The cells are then incubated at 37° C. for 2 h 30 min. The medium is then replaced with M20V.

Entries after “also recorded” stand apart in the source; their conditions may differ.

As to “KVWDIRYTTPHA [aOTX2, reference compound]”, in experiment [1], the “effect on the activation of MAP1B by Engrailed (in words)” value (shortened to “effect on the activation … (in words)”) is reported as “does not modify”.

For the molecule HOXA5: another homeodomain protein, the “activation of the MAP1B promoter by the protein or peptide alone” value (shortened to “activation … by the protein or peptide alone”) with MAP1B promoter was “activated”.

With WSWNEEVWFPFT [Peptide 2], the “effect on the activation of the MAP1B promoter in vivo (β-galactosidase)” value in the experiment with Engrailed [2] is listed as “increases the activation”. The “effect on the activation of MAP1B by the HDEn2C peptide” value in experiment [3] is “increases the activation”. Also, the “activation … by the protein or peptide alone” value with MAP1B promoter was “no effect”. Also, the “effect on the activation … (in words)” value in experiment [1] is “inhibitor; also recorded: inhibitory effect”. Also, in the experiment with Engrailed [4], the “activating effect compared with peptide 1 in neurons” value is on record as “greater than that of peptide 1” and the “effect on the activation of the MAP1B promoter in neurons” value is on record as “increased”.

Regarding SWWETQLIASSG [Peptide 1], in the experiment on Engrailed [2], the “effect on the activation of the MAP1B promoter in vivo (β-galactosidase)” value is recorded as “increased”. Also, the “effect on the activation of MAP1B by the HDEn2C peptide” value in experiment [3] was “greatly increased”. In the experiment on MAP1B promoter, the “activation … by the protein or peptide alone” value was “no action”. For the same molecule, the “effect on the activation … (in words)” value in experiment [1] is “activating effect”. Also, in experiment [1] (peptide introduced at the same time as Engrailed-2 (4 μg each vector)), the “increase of the activation of MAP1B by Engrailed” value is listed as “approximately 50%”. Further, the “effect on the activation of the MAP1B promoter in neurons” value with Engrailed [4] was “increased”.

B1: Engrailed-2: whole chick Engrailed-2 protein expressed from pCL9mEn2 under the CMV promoter (protein)
chain: MEEGGRSPREEAAEPQESGGDAEPGGGRRALLLPPGDPPHPHPHPHRITNFFIDNILRPEFGRRKEAGGTAGEPRRPGAESRRSPAAAAPAPGAPVPGGGGGGGGGSPGRGEGGPAALALHGAAKKGGDPAALEAALKARGLSGAELSVSSDSDSSQAGSNAGNQPMLWPAWVYCTRYSDRPSSGPRSRKPKKKNPNKEDKRPRTAFTAEQLQRLKAEFQTNRYLTEQRRQSLAQELGLNESQIKIWFQNKRAKIKKATGSKNSLAVHLMAQGLYNHSTTAKDGKSDSE
As for B1, the “activation … by the protein or peptide alone” value in the experiment with MAP1B promoter is “capable of activating”.
